Assay results reported in US20140242707A1, “Compositions and Methods for Diagnosing Hypercoagulability and Hypocoagulability” (Philadelphia Health & Education Corporation d/b/a Drexel …, priority 2011, published 2014).

Legend:
[1] = test system: Patient plasma; pooled normal plasma; assay: Thrombelastography of Heartmate II VAD patient plasma and pooled normal plasma; assay type: biochemical, human; details: for change in clot strength (TTG) compared to normal plasma: VAD patient plasma, 100 μM CORM-2 or 30 mM PHA
Protocol: Shortly after induction of anesthesia and invasive monitoring placement, whole blood was collected from the patient's radial arterial catheter and immediately anticoagulated with sodium citrate (9 parts blood:1 part 0.105M sodium citrate). The blood was immediately centrifuged at 3000×g at room temperature, with plasma aliquoted and stored at −80° C. prior to thrombelastographic analyses subsequently described. Operation proceeded, with VAD replacement followed by discharge from the hospital three weeks later.
Patient plasma was subjected to thrombelastographic analysis for 30 min at 37° C. as previously described (Nielsen et al., 2009, Blood Coagul Fibrinolysis, 20: 377-380; Nielsen et al., 2011, Blood Coagul Fibrinolysis, 22: 657-661). Also, for qualitative/semi-quantitative comparison, four replicate samples of citrated, pooled normal plasma (George King Bio-Medical, Overland Park, Kans., USA) were subjected to identical thrombelastographic analyses. In brief, the final volume for all subsequently described plasma sample mixtures was 359.6 Sample composition consisted of 326 μl of plasma; 10 μl of tissue factor reagent (0.1% final concentration in dH2O; Diagnostica Stago S.A.S., Asnieres sur Seine, France), 3.6 μl of dH2O or dH2O containing the organic reductant phenylhydroxylamine (PHA, 30 mM final concentration, Sigma-Aldrich, Saint Louis, Mo., USA), or 3.6 μl of CORM-2 (100 μM final concentration; Sigma-Aldrich) and 20 μl of 200 mM CaCl2. The addition of CORM-2 determines if there are heme groups unbound by CO in plasma by increasing coagulation kinetics (Nielsen et al., 2011, Blood Coagul Fibrinolysis, 22: 657-661). PHA at this concentration rapidly converts heme-attached Fe^+2 to Fe^+3, the met-state, displacing CO and decreasing coagulation (Nielsen et al., 2011, Blood Coagul Fibrinolysis, 22: 657-661). […] Thrombelastographic variables previously described (Nielsen et al., 2009, Blood Coagul Fibrinolysis, 20: 377-380; Nielsen et al., 2011, Blood Coagul Fibrinolysis, 22: 657-661) were determined, and the results are depicted in FIG. 7 and FIG. 8.

[2] = test system: Smoker and normal subject plasma; assay: Thrombelastography of smoker and normal subject plasma (COHF assay); assay type: biochemical, human; details: for final elastic modulus (G), within group vs Control: smoker and normal plasma, 100 μM CORM-2 or 30 mM PHA
Protocol: Smoking subjects, free of thrombotic or hemorrhagic disease, between the ages of 19 to 50 years of age were recruited (n=20). All comparative data are presented as mean±SD. The male:female ratio (M:F) was 14:6, and the smoking group's age was 32.8±8.7 years. This cohort smoked 1.0±0.4 packs of cigarettes per day. After written consent was obtained, the smoking subjects verified that they had smoked two cigarettes within 90 minutes prior to presentation as they would ordinarily do during the day. Noninvasive pulse oximetry was performed, with COHb found to be 5.0±2.7% for the smoking cohort. Whole blood was obtained from the smokers via venipuncture of an antecubital or hand vein and was anticoagulated with sodium citrate (9 parts blood to 1 part citrate). The blood was immediately centrifuged at 3000×g for 15 minutes at room temperature, with plasma decanted, aliquoted and stored at −80° C. prior to experimentation. Frozen, citrated plasma collected from 20 nonsmoking, age-matched normal subjects (30.7±8.7 years, M:F of 10:10) was obtained from a commercial source. Smoker and normal subject plasma was thawed and subjected to thrombelastographic analyses as previously described for 15 min at 37° C. (Nielsen et al., 2011, Blood Coagul Fibrinolysis, 22: 657-661). […] This pattern of enhanced clot development without decreased time to onset of coagulation is typical of CO exposure (Nielsen et al., 2009, Blood Coagul Fibrinolysis, 20: 377-380; Nielsen et al., 2010, Blood Coagul Fibrinolysis, 21: 349-353; Nielsen et al., 2011, Blood Coagul Fibrinolysis, 22: 657-661). […] Using a modification of the previously described assay (Nielsen et al., 2011, Blood Coagul Fibrinolysis, 22: 657-661), hypercoagulability was defined as a G value 95% confidence interval value of the normal cohort (2720 dynes/cm^2). For COHF likely to be present, G values had to increase≦the average percent seen in normal subjects (≦78%) in the presence of CORM-2, and G values had to decrease≦the average normal percent (≦74%) in the presence of PHA. Using these definitions, 10 smokers were hypercoagulable; 9 smokers had kinetically detectable COHF; and 5 were both hypercoagulable and COHF positive (25% of the cohort). Of interest, 3 smokers had neither hypercoagulability nor detectable COHF (15% of the cohort), with the remaining 12 smokers either hypercoagulable only or COHF positive only (60% of the population). […]

Structure (SMILES) | change in clot strength (TTG) compared to normal plasma [1] | change in clot strength (TTG) ([1]; normal pooled plasma, 100 μM CORM-2) | average percent increase in G ([2]; normal subjects, 100 μM CORM-2) [%] | final elastic modulus (G), within group vs Control [2] | average percent decrease in G ([2]; normal subjects, 30 mM PHA) [%]
[C-]#[O+].[C-]#[O+].[C-]#[O+].[C-]#[O+].[C-]#[O+].[C-]#[O+].[Cl][Ru][Cl].[Cl][Ru][Cl] [CORM-2, tricarbonyldichlororuthenium (II) dimer] | markedly decreased response | typical increase | 78 | significantly increased | 
ONc1ccccc1 [PHA, phenylhydroxylamine] | greater decrease |  |  | significantly decreased | 74
